Laboratory results published in patent publication US8791143B2, “Anthranilic diamide derivatives having cyclic side-chains” (priority 2010, dated 2014).
Where two headings read alike, the source gives them in different places.

Columns and labels:
[1] = log P by HPLC on reversed-phase columns (EEC Directive 79/831 Annex V.A8); format: physicochemical
[2] = tested on: caterpillars of the armyworm (Spodoptera frugiperda); assay: Spodoptera frugiperda test (SPODFR spray treatment); format: in vivo; conditions: Spodoptera frugiperda, 168 h, read-out: activity in % (caterpillars killed)
[3] = tested on: larvae of the mustard beetle (Phaedon cochleariae); assay: Phaedon test (PHAECO spray treatment); conditions: Phaedon cochleariae, 168 h, read-out: activity in % (beetle larvae killed)
[4] = reversed-phase C18 HPLC column, pH 2.7, HPLC reversed-phase C18, acidic range pH 2.7 (HCOOH), only or first value of the cell, read-out: log P
[5] = application rate 100 g/ha, after 7 days

Row | SMILES | chromatographic logP [1, 4] | pest or weed control at 100 g/ha [2, 5] [%] | pest or weed control at 100 g/ha [3] [%] | chromatographic logP ([1]; pH 2.7, log P) | pest or weed control at 100 g/ha [2] [%]
1 | Cc1cc(Cl)cc(C(=O)NCc2ccc(OC(F)F)cc2)c1NC(=O)c1cc(Cn2nnc(C(F)F)n2)nn1-c1ncccc1Cl [Example 161] | 3.42 | 100 | 100 |  | 
2 | Cc1cc(C#N)cc(C(=O)NCc2cccc(OC(F)(F)F)c2)c1NC(=O)c1cc(Cn2nnc(C(F)F)n2)nn1-c1ncccc1Cl [Example 163] | 3.42 | 100 | 100 |  | 
3 | Cc1cc(C#N)cc(C(=O)NCc2ccc(OC(F)F)cc2)c1NC(=O)c1cc(Cn2nnc(C(F)F)n2)nn1-c1ncccc1Cl [Example 165] | 3.04 | 100 | 100 |  | 
4 | Cc1cc(Cl)cc(C(=O)NCc2ccccc2OC(F)F)c1NC(=O)c1cc(Cn2nnc(C(F)F)n2)nn1-c1ncccc1Cl [Example 175] | 3.47 | 100 | 100 |  | 
5 | Cc1cc(C#N)cc(C(=O)NCc2cccc(OC(F)F)c2)c1NC(=O)c1cc(Cn2nnc(C(F)F)n2)nn1-c1ncccc1Cl [Example 178] | 3.08 | 83 | 100 |  | 
6 | Cc1cc(C#N)cc(C(=O)NCc2cccc(OC(F)F)c2)c1NC(=O)c1cc(Cn2nnc(C(F)(F)F)n2)nn1-c1ncccc1Cl [Example 180] | 3.54 | 100 | 100 |  | 
7 | Cc1cc(C#N)cc(C(=O)NCc2ccc3c(c2)OCO3)c1NC(=O)c1cc(Cn2nnc(C(F)(F)F)n2)nn1-c1ccccc1Cl [Example 182] | 3.64 | 83 | 100 |  | 
8 | Cc1c(F)ccc(C(=O)NCc2cccc(Cl)c2)c1NC(=O)c1cc(Cn2nnc(C(F)(F)F)n2)nn1-c1ncccc1Cl [Example 183] |  |  | 100 | 3.82 | 100
9 | Cc1c(F)ccc(C(=O)NCc2ccc(Cl)cc2)c1NC(=O)c1cc(Cn2nnc(C(F)(F)F)n2)nn1-c1ncccc1Cl [Example 184] |  |  | 100 | 3.8 | 100
10 | Cc1cc(C#N)cc(C(=O)NCc2ccccc2OC(F)(F)F)c1NC(=O)c1cc(Cn2nnc(C(F)(F)F)n2)nn1-c1c(Cl)cccc1Cl [Example 188] | 4.13 | 100 | 100 |  | 
11 | Cc1cc(C#N)cc(C(=O)NCc2ccccc2OC(F)F)c1NC(=O)c1cc(Cn2nnc(C(F)(F)F)n2)nn1-c1c(Cl)cccc1Cl [Example 189] | 3.75 | 100 | 100 |  | 
12 | Cc1cc(C#N)cc(C(=O)NCc2ccccc2OC(F)F)c1NC(=O)c1cc(Cn2nnc(C(F)(F)F)n2)nn1-c1ccccc1Cl [Example 190] | 3.88 | 100 | 100 |  | 
13 | Cc1cc(C#N)cc(C(=O)NCc2ccc(OC(F)F)cc2)c1NC(=O)c1cc(Cn2nnc(C(F)(F)F)n2)nn1-c1ccccc1Cl [Example 191] | 3.81 | 100 | 100 |  | 
14 | Cc1ccc(Cl)c(C(=O)NCc2ccccc2Cl)c1NC(=O)c1cc(Cn2nnc(C(F)(F)F)n2)nn1-c1ncccc1Cl [Example 196] |  |  | 100 | 3.64 | 100
15 | Cc1ccc(Cl)c(C(=O)NCc2cccc(Cl)c2)c1NC(=O)c1cc(Cn2nnc(C(F)(F)F)n2)nn1-c1ncccc1Cl [Example 197] |  |  | 100 | 3.74 | 100
16 | Cc1c(F)ccc(C(=O)NCc2ccccc2Cl)c1NC(=O)c1cc(Cn2nnc(C(F)(F)F)n2)nn1-c1ncccc1Cl [Example 202] |  |  | 100 | 3.79 | 100

Further lines, with some results ahead:

Row | chromatographic logP [1, 4] | SMILES | pest or weed control at 100 g/ha [2, 5] [%] | pest or weed control at 100 g/ha [3] [%] | chromatographic logP ([1]; pH 2.7, log P) | pest or weed control at 100 g/ha [2] [%]
17 | 3.79 | Cc1cc(Cl)cc(C(=O)NCc2cccc(OC(F)(F)F)c2)c1NC(=O)c1cc(Cn2nnc(C(F)F)n2)nn1-c1ncccc1Cl [Example 160] | 100 | 100 |  | 
18 | 3.42 | Cc1cc(C#N)cc(C(=O)NCc2ccc(OC(F)(F)F)cc2)c1NC(=O)c1cc(Cn2nnc(C(F)F)n2)nn1-c1ncccc1Cl [Example 164] | 100 | 100 |  | 
19 | 3.91 | Cc1cc(C#N)cc(C(=O)NCc2cccc(OC(F)(F)F)c2)c1NC(=O)c1cc(Cn2nnc(C(F)(F)F)n2)nn1-c1ncccc1Cl [Example 166] | 100 | 100 |  | 
20 | 3.9 | Cc1cc(C#N)cc(C(=O)NCc2ccc(OC(F)(F)F)cc2)c1NC(=O)c1cc(Cn2nnc(C(F)(F)F)n2)nn1-c1ncccc1Cl [Example 167] | 100 | 100 |  | 
21 | 3.49 | Cc1cc(C#N)cc(C(=O)NCc2ccc(OC(F)F)cc2)c1NC(=O)c1cc(Cn2nnc(C(F)(F)F)n2)nn1-c1ncccc1Cl [Example 168] | 100 | 100 |  | 
22 | 3.95 | Cc1cc(F)cc(C(=O)NCc2cccc(OC(F)(F)F)c2)c1NC(=O)c1cc(Cn2nnc(C(F)(F)F)n2)nn1-c1ncccc1Cl [Example 169] | 100 | 100 |  | 
23 | 3.55 | Cc1cc(F)cc(C(=O)NCc2ccc(OC(F)F)cc2)c1NC(=O)c1cc(Cn2nnc(C(F)(F)F)n2)nn1-c1ncccc1Cl [Example 170] | 100 | 100 |  | 
24 | 4.04 | Cc1c(F)ccc(C(=O)NCc2ccccc2OC(F)(F)F)c1NC(=O)c1cc(Cn2nnc(C(F)(F)F)n2)nn1-c1ncccc1Cl [Example 185] | 100 | 100 |  | 
25 | 4.07 | Cc1c(F)ccc(C(=O)NCc2cccc(OC(F)(F)F)c2)c1NC(=O)c1cc(Cn2nnc(C(F)(F)F)n2)nn1-c1ncccc1Cl [Example 186] | 100 | 100 |  | 
26 | 4.05 | Cc1c(F)ccc(C(=O)NCc2ccc(OC(F)(F)F)cc2)c1NC(=O)c1cc(Cn2nnc(C(F)(F)F)n2)nn1-c1ncccc1Cl [Example 187] | 100 | 100 |  | 
27 | 3.98 | Cc1cc(C#N)cc(C(=O)NCc2ccc(OC(F)(F)F)cc2)c1NC(=O)c1cc(Cn2nnc(C(F)(F)F)n2)nn1-c1ccccc1Cl [Example 192] | 100 | 100 |  | 
28 | 4.32 | O=C(NCc1cccc(OC(F)(F)F)c1)c1cc(Br)cc(Cl)c1NC(=O)c1cc(Cn2nnc(C(F)(F)F)n2)nn1-c1ncccc1Cl [Example 194] | 100 | 100 |  | 
29 | 4.31 | O=C(NCc1ccc(OC(F)(F)F)cc1)c1cc(Br)cc(Cl)c1NC(=O)c1cc(Cn2nnc(C(F)(F)F)n2)nn1-c1ncccc1Cl [Example 195] | 100 | 100 |  | 
